Results as given in patent publication US8901090B2, “Method of treating otitis externa using macrocyclic lactone compound” (Galderma S.A., priority 2010, dated 2014).

Assay: Topical treatment of patients with acute otitis externa with ivermectin lotion (informal trials, Examples 3-6)
Type: in vivo, human
Description: The otic composition of the present invention described above is applied into the external auditory canal and on the auricle of the affected ear. The lotion, gel, or ointment can be applied with an applicator into the external auditory canal by the patient or others. Preferably, the applicator has a smooth surface, for example, a glass rod, coated with the lotion, gel, or ointment. Although cotton swab can be used, precaution should be exercised, because cotton swab is rough and it can cause irritation to the epidermis of the external auditory canal, and cotton residue left in the ear canal can cause further complication of the condition. The composition in the form of liquid suspension can be dropped or sprayed into the external auditory canal. The otic composition can be packaged for proper dosing by the patients. Moreover, the otic composition can also be integrated into or applied on an absorbent material, such as a strip of cotton fabric or medical dressing, and then the absorbent material is inserted into the external auditory canal by a physician as needed.
Operating with informed consent of individuals, individuals were treated with the otic composition and the method of the present invention for treating otitis externa, as described in Examples 3 to 7.
A person presented with acute otitis externa, symptoms including pain, tenderness, and swelling of the right ear canal. […]

Q: With ivermectin as the substance, how does the “effectiveness in treating otitis externa” value (otic composition containing ivermectin at a concentration as low as 0.075%) read?
A: effective

Q: And the “time until dramatic resolution of the symptoms” value (summary of Examples 3 through 6, otic composition containing 0.075% of ivermectin)?
A: ≤ 24 h
